# Values quoted from earlier work in patent US6872408B2, “Method of treating bipolar disorders using deuterium-substituted carbonate” (priority 2001, dated 2005).
# Columns and labels:
# [1] = test system: biological clock; settings: in vivo
# [2] = test system: mice
# [3] = test system: mouse
# [4] = test system: deer mice; settings: increasing ratio of D2O to H2O in drinking water
# [5] = test system: patients; settings: patients treated for mania
# [6] = test system: patients with bipolar disorder
molecule,measurement,setting,value
CCO [ethanol],effect on length of the biological clock,[1],lengthen the biological clock
[2H]O[2H] [Deuterium oxide],effect on the period and entrainment of the light-dark (LD) cycle,[2],chronomutagenic effect
same,spontaneous locomotor activity,[3],suppressed
same,effect on length of the biological clock,[1],lengthen the biological clock
same,effect of D2O on the biological clock,[4],dose dependent and reversible
lithium salts,effect on length of the biological clock,[1],lengthen the biological clock
CC(C)[C@@H]1NC(=O)[C@H](C)OC(=O)[C@@H](C(C)C)NC(=O)[C@@H](C(C)C)OC(=O)[C@H](C(C)C)NC(=O)[C@H](C)OC(=O)[C@@H](C(C)C)NC(=O)[C@@H](C(C)C)OC(=O)[C@H](C(C)C)NC(=O)[C@H](C)OC(=O)[C@@H](C(C)C)NC(=O)[C@@H](C(C)C)OC1=O [valinomycin],effect on length of the biological clock,[1],lengthen the biological clock
"CCCC(CCC)C(=O)O [DEPAKOTE, valproic acid]",side effect,[5],frequently causes blood dyscrasias
[Li] [lithium],time for effects to take affect,[6]; patients with bipolar disorder,up to 2 weeks
same,patients receiving beneficial effects,[6]; patients with bipolar disorder prescribed lithium,up to 80%
